In the NIST ThermoML archive (doi:10.1021/acs.jced.7b00494):

Assay: mn = molality of the nth substance listed, in mol/kg
Conditions: 99.6 kPa, Liquid; for mass density: Vibrating tube method; for kinematic viscosity: Capillary tube (Ostwald / Ubbelohde) method

CNC(C)=O [N-methylacetamide] + [Ca+2].[Cl-].[Cl-]
Conditions	kinematic viscosity, 323.15 K [m2/s]	kinematic viscosity, 328.15 K [m2/s]	mass density, 318.15 K [kg/m3]	mass density, 323.15 K [kg/m3]	mass density, 328.15 K [kg/m3]
m2 = 0	2.68e-06	2.42e-06	937.44	933.24	929.07
m2 = 0.00398	2.69e-06	2.44e-06	937.73	933.54	929.34
m2 = 0.01042	2.72e-06	2.46e-06	938.2	933.97	929.79
m2 = 0.04232	2.86e-06	2.58e-06	940.39	936.24	932.07
m2 = 0.05605	2.92e-06	2.63e-06	941.34	937.18	933.03
m2 = 0.08536	3.05e-06	2.74e-06	943.45	939.13	934.99
m2 = 0.1022	3.13e-06	2.81e-06	944.7	940.52	936.21
m2 = 0.1314	3.28e-06	2.95e-06	946.62	942.51	938.24
m2 = 0.1539	3.39e-06	3.05e-06	948.18	943.99	939.85
m2 = 0.1613	3.43e-06	3.09e-06	948.73	944.54	940.37
m2 = 0.1719	3.48e-06	3.13e-06	949.44	945.4	941.17
m2 = 0.1998	3.64e-06	3.27e-06	951.58	947.31	943.19
m2 = 0.2219	3.77e-06	3.39e-06	953.04	948.77	944.71
m2 = 0.2578	4e-06	3.58e-06	955.68	951.4	947.13
m2 = 0.3546	4.71e-06	4.2e-06	962.4	958.22	953.99
